Values quoted from earlier work as cited in patent publication US12280031B2, “Teriflunomide topical pharmaceutical compositions” (APRAMITHA INNOVATIONS PRIVATE LIMITED, priority 2018, dated 2025).

Legend:
patients = details: oral teriflunomide, dose-dependent

pKa: 5.2
solubility in water (water): very slightly soluble
SMILES: C/C(O)=C(\C#N)C(=O)Nc1ccc(C(F)(F)F)cc1 [Teriflunomide, (Z)-2-cyano-3-hydroxy-but-2-enoic acid-(4′-trifluoromethylphenyl)-amide]
adverse effects (patients): nausea, diarrhoea, hair thinning/decreased hair density, and elevated alanine aminotransferase (ALT) levels
